The values that follow come from ChEMBL document CHEMBL5532637, “Antimicrobial activity of natural and semi-synthetic carbazole alkaloids” (Eur J Med Chem, 2023).

Molecules are shown by their SMILES. ≈ marks a conversion by molar mass, not a printed value.

The test system of one assay is Bacillus cereus. The assay is described as follows: Antibacterial activity against Bacillus cereus MTCC 121 assessed as inhibition of bacterial growth by broth micro-dilution assay. The assay is classed as functional. On the technique in general: Broth dilution looks for growth in wells or tubes with falling amounts of substance.
In assay [1] the test system is Staphylococcus aureus. Briefly: Antibacterial activity against Staphylococcus aureus MTCC 96 assessed as inhibition of bacterial growth by broth micro-dilution assay. The assay is classed as functional.
Assay [2] concerns Escherichia coli. Briefly: Antibacterial activity against Escherichia coli MTCC 1652 assessed as inhibition of bacterial growth by broth micro-dilution assay. The assay is classed as functional.
The subject of the next assay is Pseudomonas putida. The assay is described as follows: Antibacterial activity against Pseudomonas putida MTCC102 assessed as inhibition of bacterial growth by broth micro-dilution assay. The assay is classed as functional.
A further assay has as its system Xanthomonas oryzae. The assay is described as follows: Antimicrobial activity against Xanthomonas oryzae incubated for 24 to 48 hrs by turbidimeter test. The assay is classed as functional, organism-based.
A further assay concerns Xanthomonas axonopodis. The assay is described as follows: Antimicrobial activity against Xanthomonas axonopodis incubated for 24 to 48 hrs by turbidimeter test. The assay is classed as functional, organism-based.
Assay [3] is described as follows: Antimicrobial activity against Pseudomonas syringae pv. actinidiae incubated for 24 to 48 hrs by turbidimeter test. The assay is classed as functional.
Assay [4] relates to Cryptococcus neoformans. Briefly: Antimicrobial activity against Cryptococcus neoformans ATCC6603 assessed as inhibition of microbial growth incubated for 18 hrs by resazurin dye based two-fold serial dilution assay. The assay is classed as functional. Background: Resazurin is reduced to fluorescent resorufin, in cell work by metabolically active cells.
In assay [5] the test system is Cryptococcus neoformans. Briefly: Antimicrobial activity against Cryptococcus neoformans clinical isolate assessed as inhibition of microbial growth incubated for 18 hrs by resazurin dye based two-fold serial dilution assay. The assay is classed as functional.
Assay [6] has as its system Staphylococcus aureus. The assay is described as follows: Antimicrobial activity against Staphylococcus aureus assessed as inhibition of microbial growth incubated for 18 hrs by resazurin dye based two-fold serial dilution assay. The assay is classed as functional.
Assay [7] concerns Staphylococcus aureus. The assay is described as follows: Antimicrobial activity against Staphylococcus aureus clinical isolate assessed as inhibition of microbial growth incubated for 18 hrs by resazurin dye based two-fold serial dilution assay. The assay is classed as functional.
Assay [8] relates to Aspergillus niger. The assay is described as follows: Antimicrobial activity against Aspergillus niger RCMB02329 assessed as inhibition of microbial growth. The assay is classed as functional.
The subject of the next assay is Geotrichum candidum. Briefly: Antimicrobial activity against Geotrichum candidum RCMB050102 assessed as inhibition of microbial growth. The assay is classed as functional.
Assay [9] has as its system Staphylococcus aureus. The assay is described as follows: Antimicrobial activity against Staphylococcus aureus RCMB000106 assessed as inhibition of microbial growth. The assay is classed as functional.
Assay [10] has as its system Bacillus subtilis. The assay is described as follows: Antimicrobial activity against Bacillus subtilis RCMB 000107 assessed as inhibition of microbial growth. The assay is classed as functional.
Assay [11] relates to Escherichia coli. The assay is described as follows: Antimicrobial activity against Escherichia coli RCMB000103 assessed as inhibition of microbial growth. The assay is classed as functional.
A further assay relates to Klebsiella pneumoniae. The assay is described as follows: Antimicrobial activity against Klebsiella pneumoniae RCMB000111 assessed as inhibition of microbial growth. The assay is classed as functional.
Assay [12] has as its system Salmonella typhimurium. The assay is described as follows: Antimicrobial activity against Salmonella typhimurium RCMB010072 assessed as inhibition of microbial growth. The assay is classed as functional, Salmonella enterica subsp. enterica serovar Typhimurium. The settings on record: Salmonella enterica.
The subject of assay [13] is Pseudomonas aeruginosa. The assay is described as follows: Antibacterial activity against Pseudomonas aeruginosa MTCC 1688 assessed as inhibition of bacterial growth incubated for 24 hrs by two-fold serial dilution method. The assay is classed as functional.
Assay [14] deals with Escherichia coli. The assay is described as follows: Antibacterial activity against Escherichia coli MTCC 1687 assessed as inhibition of bacterial growth incubated for 24 hrs by two-fold serial dilution method. The assay is classed as functional.
The subject of assay [15] is Staphylococcus aureus. Briefly: Antibacterial activity against Staphylococcus aureus MTCC 96 assessed as inhibition of bacterial growth incubated for 24 hrs by two-fold serial dilution method. The assay is classed as functional.
The subject of assay [16] is Bacillus subtilis. The assay is described as follows: Antibacterial activity against Bacillus subtilis MTCC441 assessed as inhibition of bacterial growth incubated for 24 hrs by two-fold serial dilution method. The assay is classed as functional.
The subject of assay [17] is Staphylococcus aureus. Briefly: Antibacterial activity against Staphylococcus aureus assessed as inhibition of bacterial growth by broth microdilution method. The assay is classed as functional.
The next assay relates to Streptococcus pyogenes. Briefly: Antibacterial activity against Streptococcus pyogenes assessed as inhibition of bacterial growth by broth dilution method. The assay is classed as functional.
Assay [18] relates to Salmonella typhimurium. Briefly: Antibacterial activity against Salmonella typhimurium assessed as inhibition of bacterial growth by broth dilution method. The assay is classed as functional, Salmonella enterica subsp. enterica serovar Typhimurium. Particulars: Salmonella enterica.
In assay [19] the test system is Escherichia coli. Briefly: Antibacterial activity against Escherichia coli assessed as inhibition of bacterial growth by broth dilution method. The assay is classed as functional.
In assay [20] the test system is Staphylococcus aureus. The assay is described as follows: Antibacterial activity against Staphylococcus aureus assessed as inhibition of bacterial growth incubated for 24 hrs by macrodilution broth method. The assay is classed as functional.
Assay [21] relates to Bacillus subtilis. Briefly: Antibacterial activity against Bacillus subtilis assessed as inhibition of bacterial growth incubated for 24 hrs by macrodilution broth method. The assay is classed as functional.
Assay [22] deals with Escherichia coli. Briefly: Antibacterial activity against Escherichia coli assessed as inhibition of bacterial growth incubated for 24 hrs by macrodilution broth method. The assay is classed as functional.
The test system of assay [23] is Pseudomonas aeruginosa. The assay is described as follows: Antibacterial activity against Pseudomonas aeruginosa assessed as inhibition of bacterial growth incubated for 24 hrs by macrodilution broth method. The assay is classed as functional.
The subject of assay [24] is Escherichia coli. Briefly: Antimicrobial activity against Escherichia coli assessed as zone of inhibition incubated for 24 hrs by disc diffusion method. The assay is classed as functional. Background: A growth-free zone around the sample is the usual read-out of agar diffusion tests.
Assay [25] concerns Bacillus subtilis. Briefly: Antimicrobial activity against Bacillus subtilis assessed as zone of inhibition incubated for 24 hrs by disc diffusion method. The assay is classed as functional.
Assay [26] concerns Staphylococcus aureus. Briefly: Antimicrobial activity against Staphylococcus aureus assessed as zone of inhibition incubated for 24 hrs by disc diffusion method. The assay is classed as functional.
Another assay relates to Shigella flexneri. Briefly: Antimicrobial activity against Shigella flexneri assessed as zone of inhibition incubated for 24 hrs by disc diffusion method. The assay is classed as functional.
Assay [27] relates to Candida albicans. The assay is described as follows: Antimicrobial activity against Candida albicans assessed as zone of inhibition incubated for 48 hrs by disc diffusion method. The assay is classed as functional.
For assay [28], the system named is Aspergillus niger. Briefly: Antimicrobial activity against Aspergillus niger assessed as zone of inhibition incubated for 48 hrs by disc diffusion method. The assay is classed as functional.
Assay [29] relates to Candida albicans. The assay is described as follows: Antifungal activity against Candida albicans assessed as inhibition of fungal growth incubated for 1 to 5 days. The settings on record: time 1-5 day. The assay is classed as functional.

Take `O=C(Nc1ccc(F)cc1)C(=O)c1ccc2c(c1)c1ccccc1n2Cc1ccc(Cl)cc1`: the MIC in the assay with Bacillus cereus, with Staphylococcus aureus [1], with Escherichia coli [2] and in the assay with Pseudomonas putida was 8 µg/mL (≈ 17.5 µM) each time.
Consider `OC(CNCc1ccc(Cl)cc1)Cn1c2ccccc2c2ccccc21` (configuration not stated), for which the EC50 (commonly the concentration needed to bring the measured effect to its halfway point) with Xanthomonas oryzae amounted to 1.27 µg/mL (≈ 3.48 µM); with Xanthomonas axonopodis, 1.96 µg/mL (≈ 5.37 µM); in assay [3], 3.83 µg/mL (≈ 10.5 µM).
Turning to `COc1cccc2c1[nH]c1ccc(C(=O)N3CCCCC3C)cc12` (configuration not stated), the MIC (in general, the smallest concentration in the dilution series that meets the test's criterion for growth inhibition) with Cryptococcus neoformans [4] came out at 6.25 µg/mL; in the assay with Cryptococcus neoformans [5] it was 12.5 µg/mL; with Staphylococcus aureus [6] it was 6.25 µg/mL; in the assay with Staphylococcus aureus [7] it was 6.25 µg/mL.
For `CCn1c2ccccc2c2cc(/C=N/NC3=NC(=O)/C(=N\Nc4ccccc4)S3)ccc21`, the MIC with Aspergillus niger [8], in the assay with Geotrichum candidum, in the assay on Staphylococcus aureus [9], with Bacillus subtilis [10], in the assay with Escherichia coli [11] and with Klebsiella pneumoniae was 0.49 µg/mL throughout. Also, the MIC in the assay on Salmonella typhimurium [12] came out at 0.49 µg/mL.
`CCOC(=O)C1COC2=C(C(=O)N3c4ccccc4C4C=CC=C2C43)C1c1ccc(OC)cc1` (configuration not stated): the MIC is 12.5 µg/mL (≈ 27.4 µM) in the assay with Pseudomonas aeruginosa [13], 6.25 µg/mL (≈ 13.7 µM) with Escherichia coli [14], 12.5 µg/mL (≈ 27.4 µM) in the assay with Staphylococcus aureus [15] and 12.5 µg/mL (≈ 27.4 µM) in the assay on Bacillus subtilis [16].
For the compound `CCOC(=O)C1=C(C)NC2=C(C(=O)c3ccccc32)C1c1ccc2c(c1)c1ccccc1n2CC` (configuration not stated), the MIC in the assay on Staphylococcus aureus [17] turned out to be 32 µg/mL (≈ 69.2 µM); with Streptococcus pyogenes, 64 µg/mL (≈ 138 µM); with Salmonella typhimurium [18] it was 32 µg/mL (≈ 69.2 µM); in the assay with Escherichia coli [19], 32 µg/mL (≈ 69.2 µM).
Consider `COC(=O)C(C)c1ccc2c3cc(Cl)ccc3n(CC(=O)Nc3c(C)cccc3C)c2c1` (configuration not stated), for which the MIC in the assay on Staphylococcus aureus [20], in the assay with Bacillus subtilis [21], in the assay on Escherichia coli [22] and in the assay with Pseudomonas aeruginosa [23] was 0.25 µg/mL (≈ 0.557 µM) each time.
Take `Cn1c2ccccc2c2cc(-c3cc(-c4ccccn4)nc(N)n3)ccc21`: the “inhibition zone (IZ)” value in the assay on Escherichia coli [24] is given as 10 mm; with Bacillus subtilis [25] it was 18 mm; in the assay with Staphylococcus aureus [26], 18 mm; in the assay on Shigella flexneri, 18 mm; in the assay on Candida albicans [27], 15 mm; in the assay with Aspergillus niger [28], 12 mm.
For `CCn1c2ccccc2c2cc(-c3cc(-c4cc(Cl)cc(O)c4O)n[nH]3)ccc21`, in the assay on Candida albicans [29], the minimum inhibitory concentration (MIC) is 25 µg/mL (≈ 61.9 µM).
